Test results reported in ChEMBL document CHEMBL4325844, “Development of 2-amino-4-phenylthiazole analogues to disrupt myeloid differentiation factor 88 and prevent inflammatory responses in acute lung injury” (Eur J Med Chem, 2019).
pIC50: −log10 of the molar value. The source made the active and inactive calls. No cut-off for these calls is given here.

Experiments:
Peritoneal macrophage [1] = assay: Antiinflammatory activity in ICR mouse primary peritoneal macrophages assessed as inhibition of LPS-induced IL-6 production preincubated for 2 hrs followed by LPS stimulation and measured after 22 hrs by ELISA; format: functional, cell-based
Mus musculus [2] = assay: Antiinflammatory activity in LPS-induced C57/BL6 mouse model of acute lung injury assessed as reduction in IL6 level in BALF at 10 mg/kg, ip pretreated for 30 mins followed by LPS challenge measured after 6 hrs by ELISA; format: functional, organism-based
Peritoneal macrophage [3] = assay: Antiinflammatory activity in ICR mouse primary peritoneal macrophages assessed as inhibition of LPS-induced TNFalpha production at 20 uM preincubated for 60 mins followed by LPS stimulation and measured after 24 hrs by ELISA relative to control; format: functional
Mus musculus [4] = assay: Antiinflammatory activity in LPS-induced C57/BL6 mouse model of acute lung injury assessed as reduction in lung tissue destruction at 10 mg/kg, ip pretreated for 30 mins followed by LPS challenge measured after 6 hrs by hematoxylin and eosin staining based microscopic analysis; format: functional, organism-based
Mus musculus [5] = assay: Antiinflammatory activity in LPS-induced C57/BL6 mouse model of acute lung injury assessed as reduction in neutrophil inflammatory infiltration at 10 mg/kg, ip pretreated for 30 mins followed by LPS challenge measured after 6 hrs by F4/80/hematoxylin staining based microscopic analysis; format: functional, organism-based
Mus musculus [6] = assay: Antiinflammatory activity in LPS-induced C57/BL6 mouse model of acute lung injury assessed as reduction in lung wet/dry ratio at 10 mg/kg, ip pretreated for 30 mins followed by LPS challenge measured after 6 hrs; format: functional, organism-based
Mus musculus [7] = assay: Antiinflammatory activity in LPS-induced C57/BL6 mouse model of acute lung injury assessed as reduction in pulmonary congestion at 10 mg/kg, ip pretreated for 30 mins followed by LPS challenge measured after 6 hrs by hematoxylin and eosin staining based microscopic analysis; format: functional, organism-based
[8] = molecular target: Myeloid differentiation primary response protein MyD88 (Mus musculus) (UniProt P22366); assay: Inhibition of MyD88 in ICR mouse primary peritoneal macrophages assessed as reduction in LPS-induced IkappaB levels at 20 uM preincubated for 30 mins followed by LPS-stimulation and measured after 20 mins by Western blot analysis
Chain of Myeloid differentiation primary response protein MyD88 (Mus musculus) (P22366 whole entry): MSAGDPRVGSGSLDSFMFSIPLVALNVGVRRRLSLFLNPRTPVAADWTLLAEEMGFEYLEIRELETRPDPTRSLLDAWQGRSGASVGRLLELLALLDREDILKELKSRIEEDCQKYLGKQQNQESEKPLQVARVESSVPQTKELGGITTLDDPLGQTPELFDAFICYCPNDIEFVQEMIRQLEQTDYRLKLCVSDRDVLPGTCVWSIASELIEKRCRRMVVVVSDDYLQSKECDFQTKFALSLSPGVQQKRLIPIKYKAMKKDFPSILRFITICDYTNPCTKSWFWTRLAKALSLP

[9] = molecular target: Myeloid differentiation primary response protein MyD88 (Mus musculus) (UniProt P22366); assay: Inhibition of MyD88 in ICR mouse primary peritoneal macrophages assessed as reduction in LPS-induced ERK phosphorylation at 20 uM preincubated for 30 mins followed by LPS-stimulation and measured after 20 mins by Western blot analysis

- pIC50 (Peritoneal macrophage [1]): 5.60
- inhibition [8]: Active
- inhibition [9]: Active
Compound: COc1cc(-c2csc(NC(=O)CCN3CCN(Cc4cccc([N+](=O)[O-])c4)CC3)n2)ccc1O
- inhibition (Peritoneal macrophage [1]): Dose-dependent effect
- Activity (Mus musculus [2]): Active
- inhibition at 20 µM (Peritoneal macrophage [3]): 90.4%
- Activity (Mus musculus [4]): Active
- Activity (Mus musculus [5]): Active
- Activity (Mus musculus [6]): Active
- Activity (Mus musculus [7]): Active
